{"source": "patent US8969555B2", "about": "“Bicyclic pyrimidine compounds” (Eli Lilly and Company, priority 2013, dated 2015)", "key": {"[1]": {"molecular_target": "T1, recombinant human autotaxin (Homo sapiens, UniProt Q13822)", "T1 construct": "full length human autotaxin with a C-terminal His tag transfected into 293E cells; His tag (C); made in house; host or cells: 293E cells", "assay": "Inhibition of Autotaxin as Measured by Choline Release", "assay_type": "biochemical", "conditions": "LPC 16:0 30 μM, 37° C. 1 hour, arithmetic mean"}, "endogenous autotaxin": {"molecular_target": "T2, endogenous autotaxin (Homo sapiens, UniProt Q13822)", "T2 construct": "The increased endogenous LPC levels are cleaved by endogenous autotaxin; tissue Lampire Biologicals; host or cells: pooled human plasma (healthy female donors, sodium heparin)", "assay": "Reduction of LPA in the Presence of Human Plasma", "assay_type": "biochemical", "conditions": "90% pooled human plasma, 3 hours at 37° C., total LPA by mass spec; arithmetic mean"}}, "data": [{"smiles": "O=C(COCCc1cnn[nH]1)N1CCc2nc(NC3Cc4ccccc4C3)ncc2C1", "note": "[Example 1 and 1a, 1-[2-(2,3-dihydro-1H-inden-2-ylamino)-7,8-dihydropyrido[4,3-d]pyrimidin-6(5H)-yl]-2-[2-(1H-1,2,3-triazol-4-yl)ethoxy]ethanone]", "values": [{"measurement": "IC50", "setting": "[1]", "result": 5.7, "unit": "nM"}, {"measurement": "IC50", "setting": "endogenous autotaxin", "result": 10, "unit": "nM"}]}]}
